The results in this text go back to PubChem BioAssay AID1259407 (Chemical Carcinogenesis Research Information System (CCRIS), 2018).

Entries after “also recorded” stand apart in the source; their conditions may differ. Activity calls are given as the source filed them. No rule for the calls is given here.

The series concerns CCRIS mutagenicity, Ames/micronucleus/aberration tests. Kind of series: CCRIS mutagenicity studies.
The mark [1] stands for this setting: Test System: AMES SALMONELLA TYPHIMURIUM, Strain/Indicator: TA98, Metabolic Activation: NONE, Method: STANDARD PLATE.
The mark [2] stands for this setting: Test System: AMES SALMONELLA TYPHIMURIUM, Strain/Indicator: TA100, Metabolic Activation: NONE, Method: PREINCUBATION

For `CCSC(C)CC1CC(=O)C(/C(CC)=N/OC/C=C/Cl)=C(O)C1` (stereo not drawn), the mutagenic call is “inactive; negative (purity 96.1%); also recorded: active; positive (structural changes; purity 81.4%)” (End Point: In vitro chromosomal aberrations, Test System: Chinese hamster ovary (CHO) cells, Metabolic Activation: None); “inactive; negative (purity 96.1%)” (End Point: In vitro chromosomal aberrations, Test System: Chinese hamster ovary (CHO) cells, Metabolic Activation: Rat, liver, S-9, Aroclor 1254); “inactive; negative (purity 83.3%)” (End Point: In vivo chromosomal aberrations, Test System: Bone marrow, Species: Rat, Strain/Sex: Sprague-Dawley/Female, Route: Gavage); “inactive; negative (purity 83.3%)” (End Point: In vivo chromosomal aberrations, Test System: Bone marrow, Species: Rat, Strain/Sex: Sprague-Dawley/Male, Route: Gavage); “inactive; negative (purity 83.3%)” (Test System: Ames Salmonella typhimurium, Strain/Indicator: TA98, Metabolic Activation: None, Method: Standard Plate); “inactive; negative (purity 83.3%)” (Test System: Ames Salmonella typhimurium, Strain/Indicator: TA98, Metabolic Activation: Rat, liver, S-9, Aroclor, Method: Standard Plate). Further, the mutagenic call (Test System: Ames Salmonella typhimurium, Strain/Indicator: TA100, Metabolic Activation: None, Method: Standard Plate) was “inactive; negative (purity 83.3%)”; the mutagenic call (Test System: Ames Salmonella typhimurium, Strain/Indicator: TA100, Metabolic Activation: Rat, liver, S-9, Aroclor, Method: Standard Plate) is “inactive; negative (purity 83.3%)”; the mutagenic call (Test System: Ames Salmonella typhimurium, Strain/Indicator: TA1535, Metabolic Activation: None, Method: Standard Plate) is “inactive; negative (purity 83.3%)”; the mutagenic call (Test System: Ames Salmonella typhimurium, Strain/Indicator: TA1535, Metabolic Activation: Rat, liver, S-9, Aroclor, Method: Standard Plate) is “inactive; negative (purity 83.3%)”; the mutagenic call (Test System: Ames Salmonella typhimurium, Strain/Indicator: TA1537, Metabolic Activation: None, Method: Standard Plate) is “inactive; negative (purity 83.3%)”; the mutagenic call (Test System: Ames Salmonella typhimurium, Strain/Indicator: TA1537, Metabolic Activation: Rat, liver, S-9, Aroclor, Method: Standard Plate) was “inactive; negative (purity 83.3%)”. The mutagenic call is “inactive; negative (purity 83.3%)” (Test System: E. coli, Strain/Indicator: WP2uvrA, Metabolic Activation: None, Method: Standard Plate); “inactive; negative (purity 83.3%)” (Test System: E. coli, Strain/Indicator: WP2uvrA, Metabolic Activation: Rat, liver, S-9, Aroclor, Method: Standard Plate); “inactive; negative (purity 83.3%)” (Test System: UDS Mouse hepatocytes, Strain/Indicator: Thymidine incorporation, Metabolic Activation: Activation in whole animal, Method: Autoradiography).

Take `CCN(CC)c1ccc(N=Nc2ccccc2)cc1`: the mutagenic call is “inactive; negative” (Test System: AMES SALMONELLA TYPHIMURIUM, Strain/Indicator: TA98, Metabolic Activation: RAT, LIVER, MICROSOMES, 4-DIETHYLAMINOAZOBENZENE, Method: PREINCUBATION); “inactive; negative” (Test System: AMES SALMONELLA TYPHIMURIUM, Strain/Indicator: TA98, Metabolic Activation: RAT, LIVER, MICROSOMES, AROCLOR 1254, Method: PREINCUBATION); “inactive; negative” (Test System: AMES SALMONELLA TYPHIMURIUM, Strain/Indicator: TA98, Metabolic Activation: RAT, LIVER, MICROSOMES, Method: PREINCUBATION).

With `C[C@]12CC[C@H]3C(=CCc4cc(O)ccc43)[C@@H]1CCC2=O`, under “Test System: UDS RAT HEPATOCYTES, Strain/Indicator: THY INCORP (18-20 HR), Metabolic Activation: NONE, Method: LIQUID SCINTILLATION COUNTING”, the mutagenic call was “inactive; negative”.

Take `CCN(CC)CCCNC(=O)N/N=C/c1ccc([N+](=O)[O-])o1`: the mutagenic call (Test System: E. COLI, Strain/Indicator: WP2 UVRA, Metabolic Activation: NONE, Method: SPOT) is “active; positive”.

`CCC12OC1(C(=O)OC)C(=O)NC2(C)O` (stereo not drawn): the mutagenic call (Test System: AMES SALMONELLA TYPHIMURIUM, Strain/Indicator: TA98, Metabolic Activation: NONE, Method: DISK ASSAY) was “inactive; negative”; the mutagenic call under setting [1] was “inactive; negative”; the mutagenic call (Test System: AMES SALMONELLA TYPHIMURIUM, Strain/Indicator: TA98, Metabolic Activation: RAT, LIVER, S-9, AROCLOR 1254, Method: DISK ASSAY) was “inactive; negative”; the mutagenic call (Test System: AMES SALMONELLA TYPHIMURIUM, Strain/Indicator: TA98, Metabolic Activation: RAT, LIVER, S-9, AROCLOR 1254, Method: STANDARD PLATE) was “active; positive”.

For `CCNc1nc(Cl)nc(NC(C)(C)C#N)n1`, the mutagenic call was “inactive; negative for aberrations but cell cycle delay at 250 and 350 ug/ml doses” (End Point: In vitro chromosomal aberrations, Test System: Human lymphocytes, Metabolic Activation: None); “inactive; negative” (End Point: In vitro chromosomal aberrations, Test System: Human lymphocytes, Metabolic Activation: Rat, liver, S-9, Aroclor 1254); “inactive; negative, cytotoxicity at highest dose” (Test System: Ames Salmonella typhimurium, Strain/Indicator: TA97a, Metabolic Activation: None, Method: Plate incorporation); “inactive; negative, cytotoxicity at highest dose” (Test System: Ames Salmonella typhimurium, Strain/Indicator: TA97a, Metabolic Activation: Rat, liver, S-9, Aroclor 1254, Method: Plate incorporation); “inactive; negative, cytotoxicity at highest dose” (Test System: Ames Salmonella typhimurium, Strain/Indicator: TA98, Metabolic Activation: None, Method: Plate incorporation); “inactive; negative, cytotoxicity at highest dose” (Test System: Ames Salmonella typhimurium, Strain/Indicator: TA98, Metabolic Activation: Rat, liver, S-9, Aroclor 1254, Method: Plate incorporation). In addition, the mutagenic call (Test System: Ames Salmonella typhimurium, Strain/Indicator: TA100, Metabolic Activation: None, Method: Plate incorporation) was “inactive; negative, cytotoxicity at highest dose”; the mutagenic call (Test System: Ames Salmonella typhimurium, Strain/Indicator: TA100, Metabolic Activation: Rat, liver, S-9, Aroclor 1254, Method: Plate incorporation) was “inactive; negative, cytotoxicity at highest dose”; the mutagenic call (Test System: Ames Salmonella typhimurium, Strain/Indicator: TA1535, Metabolic Activation: None, Method: Plate incorporation) is “inactive; negative, cytotoxicity at highest dose”; the mutagenic call (Test System: Ames Salmonella typhimurium, Strain/Indicator: TA1535, Metabolic Activation: Rat, liver, S-9, Aroclor 1254, Method: Plate incorporation) was “inactive; negative, cytotoxicity at highest dose”; the mutagenic call (Test System: UDS HUMAN PERIPHERAL BLOOD LYMPHOCYTES, Strain/Indicator: THY INCORP, Metabolic Activation: NONE, Method: LIQUID SCINTILLATION) was “inactive; negative”; the mutagenic call (Test System: UDS HUMAN PERIPHERAL BLOOD LYMPHOCYTES, Strain/Indicator: THY INCORP, Metabolic Activation: RAT, LIVER, S-9, PHENOBARBITAL AND BETA-NAPHTHOFLAVONE, Method: LIQUID SCINTILLATION) is “inactive; negative”. Besides, the mutagenic call (Test System: UDS rat primary hepatocytes, Strain/Indicator: Thymidine incorporation, Metabolic Activation: None, Method: Autoradiography) is “active; positive at >/= 1 um”.

For the molecule `CCCCN(C)N=O`, for the setting “Test System: AMES SALMONELLA TYPHIMURIUM, Strain/Indicator: TA100, Metabolic Activation: RAT, LIVER, S-9, KC500 OR PHENOBARBITAL, Method: LIQUID SUSPENSION”, the mutagenic call was “active; positive”.

`Cc1ccc(Cl)cc1N`: the mutagenic call (End Point: IN VITRO CHROMOSOMAL ABERRATIONS, Test System: CHINESE HAMSTER OVARY CELLS, Metabolic Activation: NONE) was “inactive; negative”; the mutagenic call (End Point: IN VITRO CHROMOSOMAL ABERRATIONS, Test System: CHINESE HAMSTER OVARY CELLS, Metabolic Activation: RAT, LIVER, S-9, AROCLOR 1254) is “inactive; negative”; the mutagenic call (Test System: UDS RODENT HEPATOCYTES, Strain/Indicator: THY INCORP (NON-S-PHASE), Metabolic Activation: NONE, Method: AUTORADIOGRAPHY) is “inactive; negative”.

With `Nc1[nH]c(=O)nc2c1ncn2[C@H]1C[C@H](O)[C@@H](CO)O1`, the mutagenic call under setting [2] is “inactive; negative”.

On to `Cc1cc2c(cc1N=O)OCO2`, for which the mutagenic call reads like this: under setting [2], “active; positive”; (Test System: AMES SALMONELLA TYPHIMURIUM, Strain/Indicator: TA100, Metabolic Activation: RAT, LIVER, S-9, PHENOBARBITAL AND 5,6-BENZOFLAVONE, Method: PREINCUBATION) “active; positive”.

Regarding `CC(=O)Nc1ccc(Oc2ccc(NC(C)=O)cc2)cc1`, the mutagenic call is, setting by setting: under setting [1], “inactive; negative”; (Test System: AMES SALMONELLA TYPHIMURIUM, Strain/Indicator: TA98, Metabolic Activation: RAT, LIVER, S-9, PCB, Method: STANDARD PLATE) “inactive; negative”; (Test System: AMES SALMONELLA TYPHIMURIUM, Strain/Indicator: TA100, Metabolic Activation: NONE, Method: STANDARD PLATE) “inactive; negative”; (Test System: AMES SALMONELLA TYPHIMURIUM, Strain/Indicator: TA100, Metabolic Activation: RAT, LIVER, S-9, PCB, Method: STANDARD PLATE) “inactive; negative”.
